Assay: Hygroscopic behavior test by dynamic vapor sorption (DVS)
Format: physicochemical
Settings: 25° C.; for Did the crystal form change before and after the test?: 0-90% RH; for Hygroscopicity / 80% RH sample weight change (%): 80% RH; for 80% RH sample weight change (%): adsorption 0-90% RH
Source text: The experimental method for characterizing an acid salt or a base salt of compound I by dynamic vapor sorption (DVS) was as follows: A small amount of a powder of the acid salt or the base salt of compound I was taken and placed into a precise sample tray that matches the instrument. After the sample was loaded, the sample tray was sent into the instrument for analysis. In the present disclosure, the instrument model used in the dynamic vapor sorption analysis was Intrinsic PLUS; the experimental parameter was set as follows: a constant temperature of 25° C. was set; the mass percent change rate per unit time (dm/dt)=0.02%/min was used as a criterion for determining that a balance is achieved; the program humidity change cycle was set as follows: the initial relative humidity was 0%, and the endpoint relative humidity was 90%.
The hygroscopic behavior of a compound affects the production, storage, stability, and quality of the drug.

Compound	Did the crystal form change before and after the test?	Hygroscopicity	80% RH sample weight change (%)
O=C(O)c1ccc2nc(CN3CCC(Oc4cccc(COc5ccc(Cl)cc5F)n4)CC3)n(C[C@@H]3CCO3)c2c1 [Free form of compound I-1, (S)-2-((4-((6-((4-chloro-2-fluorophenoxy)methyl)pyridin-2-yl)oxy)piperidin-1-yl)methyl)-1-(oxetan-2-ylmethyl)-1H-benzo[d]imidazole-6-carboxylic acid]	no solid form change was observed and No	slightly hygroscopic	0.90%
N#Cc1ccc(OCc2cccc(OC3CCN(Cc4nc5ccc(C(=O)O)cc5n4C[C@@H]4CCO4)CC3)n2)c(F)c1 [Free form of compound I-2, (S)-2-((4-((6-((4-cyano-2-fluorophenoxy)methyl)pyridin-2-yl)oxy)piperidin-1-yl)methyl)-1-(oxetan-2-ylmethyl)-1H-benzo[d]imidazole-6-carboxylic acid]	no solid form change was observed and No	slightly hygroscopic	0.71%
